Data published in patent US9604980B2, “Substituted pyrimidinyl and pyridinyl-pyrrolopyridinones, process for their preparation and their use as kinase inhibitors” (NERVIANO MEDICAL SCIENCES S.r.l, priority 2012, dated 2017).
≈ marks a conversion by molar mass, not a printed value.

Legend:
[1] = tested on: MCF-7 breast carcinoma cells; test: In Vitro Cell Proliferation Assay (MCF-7); type: cell-based; settings: Homo sapiens, MCF7; 72 hours exposure, CellTiterGlo
Method: (§1) In Vitro Cell Proliferation Assay
(§2) To evaluate the antiproliferative activity of a compound of formula (I) the following human cell lines were used: A2780 ovarian and MCF-7 breast carcinoma; TT and MZ-CRC-1 medullary thyroid carcinoma, harboring a mutated RET-C634W and RET-M918T receptor respectively, LC-2/ad Non Small Cell Lung Carcinoma, expressing the CCDC6-RET fusion gene product. Exponentially growing cells were seeded and incubated at 37° C. in a humidified 5% C02 atmosphere using appropriate medium supplemented with 10% Fetal Bovine Serum. 24 hours following cell plating, scalar doses of the compounds dissolved in 0.1% DMSO were added to the medium and cells were exposed to drugs for either 72 hours (MCF-7 and A2780) or 144 hours (TT, MZ-CRC-1 and LC-2/ad), according to their different proliferation rate. At the end of treatment, cell proliferation was determined by an intracellular ATP monitoring system (CellTiterGlo—Promega), following manufacturer's instructions, and using an Envision instrument (PerkinElmer) as reader. Data obtained from compound versus vehicle treated cells were compared using Assay Explorer (Symyx Technologies Inc) software. IC50 values were calculated using sigmoidal interpolation curve fitting.

[2] = High-Throughput Solubility Assay; type: physicochemical; settings: kinetic from dmso stock; pH 7, aqueous potassium phosphate buffer, nominal 200 μM, 24 h at room temperature
Method: High-Throughput Solubility Assay
A nominal 200 μM suspensions/solutions of a compound of formula (I) in aqueous potassium phosphate buffer at pH=7 and aqueous citric acid buffer at pH=3 were prepared on a “Multiscreen-HTS”, 0.2 μm filter plate (Millipore, Billerica, Mass.). These solutions were stirred for 10 min and stored for 24 h at room temperature to pre-saturate the membrane filter and to reach a “pseudo-thermodynamic solubility”. Then the plate was put on a 500 μL 96 multiwell plate containing 200 μL of acetonitrile in each well and centrifuged at 2000 rpm for 5 minutes. The so obtained solutions were then analyzed simultaneously by HPLC-UV with standard solutions for quantification.

[3] = tested on: A2780 ovarian carcinoma cells; test: In Vitro Cell Proliferation Assay (A2780); type: cell-based; settings: Homo sapiens, 72 hours exposure, CellTiterGlo
Method: as §1, §2

[4] = tested on: TT medullary thyroid carcinoma cells, harboring a mutated RET-C634W receptor; test: In Vitro Cell Proliferation Assay (TT); type: cell-based; settings: Homo sapiens; 144 hours exposure, CellTiterGlo
Method: as §1, §2

[5] = tested on: LC-2/ad Non Small Cell Lung Carcinoma cells, expressing the CCDC6-RET fusion gene product; test: In Vitro Cell Proliferation Assay (LC-2/ad); type: cell-based; settings: Homo sapiens, 144 hours exposure, CellTiterGlo
Method: as §1, §2

[6] = tested on: MZ-CRC-1 medullary thyroid carcinoma cells, harboring a mutated RET-M918T receptor; test: In Vitro Cell Proliferation Assay (MZ-CRC-1); type: cell-based; settings: Homo sapiens, 144 hours exposure, CellTiterGlo
Method: as §1, §2

Row | SMILES | IC50 [1] [nM] | solubility at 24 h [2] [µM] | IC50 [3] [nM] | IC50 [4] [µM] | IC50 [5] [µM] | IC50 [6] [µM]
1 | CCN1CCN(Cc2ccc(NC(=O)Nc3cccc(C#Cc4cnc(N)nc4-c4cc5c(n4C)CCNC5=O)c3)cc2C(F)(F)F)CC1 [Cmpd 8, 1-{3-[2-Amino-4-(1-methyl-4-oxo-4,5,6,7-tetrahydro-1H-pyrrolo[3,2-c]pyridin-2-yl)-pyrimidin-5-ylethynyl]-phenyl}-3-[4-(4-ethyl-piperazin-1-ylmethyl)-3-trifluoromethyl-phenyl]-urea] | 4780 | 6.5 (≈ 4.37 µg/mL) | 1760 | 0.002 | 0.038 | 0.074
2 | CCN1CCN(Cc2ccc(NC(=O)c3cccc(C#Cc4cnc(N)nc4-c4cc5c(n4C)CCNC5=O)c3)cc2C(F)(F)F)CC1 [Cmpd 48, 3-[2-Amino-4-(1-methyl-4-oxo-4,5,6,7-tetrahydro-1H-pyrrolo[3,2-c]pyridin-2-yl)-pyrimidin-5-ylethynyl]-N-[4-(4-ethyl-piperazin-1-ylmethyl)-3-trifluoromethyl-phenyl]-benzamide] | 1840 | 26.9 (≈ 17.7 µg/mL) | 85 | 0.0005 | 0.004 | 0.004
3 | CCN1CCN(Cc2ccc(NC(=O)Cc3cccc(C#Cc4cnc(N)nc4-c4cc5c(n4C)CCNC5=O)c3)cc2C(F)(F)F)CC1 [Cmpd 77, 2-{3-[2-Amino-4-(1-methyl-4-oxo-4,5,6,7-tetrahydro-1H-pyrrolo[3,2-c]pyridin-2-yl)-pyrimidin-5-ylethynyl]-phenyl}-N-[4-(4-ethyl-piperazin-1-ylmethyl)-3-trifluoromethyl-phenyl]-acetamide] | 6650 | 23 (≈ 15.4 µg/mL) | 2820 | 0.002 | 0.003 | 0.023
4 | CCN1CCN(Cc2ccc(NC(=O)Cc3cccc(C#Cc4cnc(NC)nc4-c4cc5c(n4C)CCNC5=O)c3)cc2C(F)(F)F)CC1 [Cmpd 78, N-[4-(4-Ethyl-piperazin-1-ylmethyl)-3-trifluoromethyl-phenyl]-2-{3-[2-methylamino-4-(1-methyl-4-oxo-4,5,6,7-tetrahydro-1H-pyrrolo[3,2-c]pyridin-2-yl)-pyrimidin-5-ylethynyl]-phenyl}-acetamide] | 2310 | 1.4 (≈ 0.959 µg/mL) | 2220 | 0.007 | 0.014 | 0.026
5 | CNc1ncc(C#Cc2cccc(CC(=O)Nc3ccc(CN4CCN(C)CC4)c(C(F)(F)F)c3)c2)c(-c2cc3c(n2C)CCNC3=O)n1 [Cmpd 174, 2-{3-[2-Methylamino-4-(1-methyl-4-oxo-4,5,6,7-tetrahydro-1H-pyrrolo[3,2-c]pyridin-2-yl)-pyrimidin-5-ylethynyl]-phenyl}-N-[4-(4-methyl-piperazin-1-ylmethyl)-3-trifluoromethyl-phenyl]-acetamide] | – | 3.5 (≈ 2.35 µg/mL) | 1150 | 0.005 | 0.01 | 0.015

Next, values leading:

Row | IC50 [1] [nM] | solubility at 24 h [2] [µM] | IC50 [3] [nM] | IC50 [4] [µM] | IC50 [5] [µM] | IC50 [6] [µM] | SMILES
6 | – | 7.6 (≈ 5.31 µg/mL) | 3830 | 0.014 | 0.02 | 0.023 | CNc1ncc(C#Cc2cccc(CC(=O)Nc3ccc(CN4CCN(C(C)C)CC4)c(C(F)(F)F)c3)c2)c(-c2cc3c(n2C)CCNC3=O)n1 [Cmpd 176, N-[4-(4-Isopropyl-piperazin-1-ylmethyl)-3-trifluoromethyl-phenyl]-2-{3-[2-methylamino-4-(1-methyl-4-oxo-4,5,6,7-tetrahydro-1H-pyrrolo[3,2-c]pyridin-2-yl)-pyrimidin-5-ylethynyl]-phenyl}-acetamide]
7 | – | 2.9 (≈ 2 µg/mL) | 2310 | 0.008 | 0.051 | 0.039 | CNc1ncc(C#Cc2cc(CC(=O)Nc3ccc(CN4CCN(C)CC4)c(C(F)(F)F)c3)ccc2F)c(-c2cc3c(n2C)CCNC3=O)n1 [Cmpd 190, 2-{4-Fluoro-3-[2-methylamino-4-(1-methyl-4-oxo-4,5,6,7-tetrahydro-1H-pyrrolo[3,2-c]pyridin-2-yl)-pyrimidin-5-ylethynyl]-phenyl}-N-[4-(4-methyl-piperazin-1-ylmethyl)-3-trifluoromethyl-phenyl]-acetamide]
8 | – | < 1 | 910 | 0.016 | 0.015 | 0.039 | CCNc1ncc(C#Cc2cccc(CC(=O)Nc3ccc(CN4CCN(C)CC4)c(C(F)(F)F)c3)c2)c(-c2cc3c(n2C)CCNC3=O)n1 [Cmpd 193, 2-{3-[2-Ethylamino-4-(1-methyl-4-oxo-4,5,6,7-tetrahydro-1H-pyrrolo[3,2-c]pyridin-2-yl)-pyrimidin-5-ylethynyl]-phenyl}-N-[4-(4-methyl-piperazin-1-ylmethyl)-3-trifluoromethyl-phenyl]-acetamide]
